#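 Dose response: 5 concentrations. Exposure: 48 h. Format: 96-well plates. Endpoint: linear interpolation; highest concentration if not reached. The concentration for 50% growth inhibition is given as GI50. The concentration for full growth arrest is given as TGI.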
# How the values were obtained:
# Assay in all cases: inhibition of tumour cell growth, NCI panel, 48 h
# MDA-MB-468 breast = system: MDA-MB-468 breast
# KM12 colon = system: KM12 colon
# MALME-3M melanoma = system: MALME-3M melanoma
# RXF 393 renal = system: RXF 393 renal
# IGROV1 ovarian = system: IGROV1 ovarian
# 786-0 renal = system: 786-0 renal
# A549 NSCLC = system: A549 NSCLC
# SN12C renal = system: SN12C renal
# SK-OV-3 ovarian = system: SK-OV-3 ovarian
# PC-3 prostate = system: PC-3 prostate
# SF-268 CNS = system: SF-268 CNS
# HCT-15 colon = system: HCT-15 colon
# SK-MEL-5 melanoma = system: SK-MEL-5 melanoma
# NCI-H226 lung = system: NCI-H226 lung
# UACC-62 melanoma = system: UACC-62 melanoma
# MDA-MB-435 = system: MDA-MB-435
# SF-295 CNS = system: SF-295 CNS
# HL-60(TB) leukemia = system: HL-60(TB) leukemia
# TK-10 renal = system: TK-10 renal
# K-562 leukemia = system: K-562 leukemia
# DU-145 prostate = system: DU-145 prostate
# BT-549 breast = system: BT-549 breast
# HOP-62 NSCLC = system: HOP-62 NSCLC
# UACC-257 melanoma = system: UACC-257 melanoma
# HOP-92 NSCLC = system: HOP-92 NSCLC
# HS 578T breast = system: HS 578T breast
# ACHN renal = system: ACHN renal
# HCT-116 colon = system: HCT-116 colon
# EKVX NSCLC = system: EKVX NSCLC
smiles,measurement,setting,value
O=C(c1ccc(Cl)cc1)C1[C@H](c2ccccc2Br)[C@@H](c2ccccc2)NC12C(=O)Nc1ccc(Br)cc12 (stereo partly drawn),GI50,MDA-MB-468 breast,1.55 µM
same,TGI,MDA-MB-468 breast,14.2 µM
same,GI50,KM12 colon,7.46 µM
same,TGI,KM12 colon,23.4 µM
same,GI50,MALME-3M melanoma,13.1 µM
same,TGI,MALME-3M melanoma,> 49 µM
same,GI50,RXF 393 renal,2.2 µM
same,TGI,RXF 393 renal,23.3 µM
same,GI50,IGROV1 ovarian,6.71 µM
same,TGI,IGROV1 ovarian,> 49 µM
same,GI50,786-0 renal,18.4 µM
same,TGI,786-0 renal,> 49 µM
same,GI50,A549 NSCLC,4.84 µM
same,TGI,A549 NSCLC,> 49 µM
same,GI50,SN12C renal,5.33 µM
same,TGI,SN12C renal,14 µM
same,GI50,SK-OV-3 ovarian,13.6 µM
same,TGI,SK-OV-3 ovarian,> 49 µM
same,GI50,PC-3 prostate,2.53 µM
same,TGI,PC-3 prostate,33.4 µM
same,GI50,SF-268 CNS,3.97 µM
same,TGI,SF-268 CNS,> 49 µM
same,GI50,HCT-15 colon,7.65 µM
same,TGI,HCT-15 colon,> 49 µM
same,GI50,SK-MEL-5 melanoma,10.6 µM
same,TGI,SK-MEL-5 melanoma,38 µM
same,GI50,NCI-H226 lung,5.52 µM
same,TGI,NCI-H226 lung,> 49 µM
same,GI50,UACC-62 melanoma,6.59 µM
same,TGI,UACC-62 melanoma,> 49 µM
same,GI50,MDA-MB-435,7.74 µM
same,TGI,MDA-MB-435,22.3 µM
same,GI50,SF-295 CNS,12.2 µM
same,TGI,SF-295 CNS,> 49 µM
same,GI50,HL-60(TB) leukemia,8.67 µM
same,TGI,HL-60(TB) leukemia,32.5 µM
same,GI50,TK-10 renal,20.4 µM
same,TGI,TK-10 renal,> 49 µM
same,GI50,K-562 leukemia,6.65 µM
same,TGI,K-562 leukemia,> 49 µM
same,GI50,DU-145 prostate,9.36 µM
same,TGI,DU-145 prostate,> 49 µM
same,GI50,BT-549 breast,5.97 µM
same,TGI,BT-549 breast,> 49 µM
same,GI50,HOP-62 NSCLC,15.6 µM
same,TGI,HOP-62 NSCLC,> 49 µM
same,GI50,UACC-257 melanoma,10 µM
same,TGI,UACC-257 melanoma,> 49 µM
same,GI50,HOP-92 NSCLC,3.28 µM
same,TGI,HOP-92 NSCLC,> 49 µM
same,GI50,HS 578T breast,7.13 µM
same,TGI,HS 578T breast,> 49 µM
same,GI50,ACHN renal,10 µM
same,TGI,ACHN renal,> 49 µM
same,GI50,HCT-116 colon,2.34 µM
same,TGI,HCT-116 colon,11.7 µM
same,GI50,EKVX NSCLC,13.3 µM
same,TGI,EKVX NSCLC,> 49 µM
